This data set can be described thus: Induction of endotoxin shock in the mouse. As to conditions: in vivo, read-out: LD₅₀. An excerpt: The test method is essentially as described in GB 2'179'945 A and DE 37'30'905.

For the compound `CCCCCCC(=O)N[C@H](CCC(=O)N[C@H](/C=C/CC(O)C(=O)OCCCC)C(=O)N[C@@H](C)C(=O)OCC)C(=O)OCc1ccccc1` (stereo partly drawn) [Example 1, {N-[N′-Heptanoyl-(R)-γ-glutamyl-(α-benzylester)]-(R)-α-[2-(RS)-hydroxypent-4-enoic acid butyl ester-5-yl]glycyl]-(S)-alanine ethyl ester], the LD50 amounted to 12 mg/kg.

These data come from patent EP0417803A1, “[N-(gamma-glutamyl)glycyl] alanine derivatives” (SANDOZ LTD., priority 1989, dated 1991).
